One block for each molecule: values may come before it. Activity calls are given as the source filed them. The calls are words filed in the database; no cut-off is given here.
How the values were obtained:
Cricetinae gen. sp. [1] = assay: Inhibition of Human Leukocyte Elastase (HLE) induced lung hemorrhage in hamster at an oral dose of 20 mg/kg; assay type: functional, Cricetulus griseus
[2] = Bioavailability was evaluated in dog; assay type: ADME, organism-based, Canis lupus familiaris; details: in vivo, read-out: Bioavailabiility
Cricetinae gen. sp. [3] = assay: The compound was evaluated for effective dose after oral dosing; assay type: functional, Cricetulus griseus
[4] = Bioavailability was evaluated in hamster; assay type: ADME, organism-based; details: cricetinae, in vivo; read-out: Bioavailabiility
Cricetinae gen. sp. [5] = assay: Inhibition of Human Leukocyte Elastase (HLE) induced lung hemorrhage in hamster at an oral dose of 2.5 mg/kg; assay type: functional, Cricetulus griseus
[6] = Bioavailability in rat; assay type: ADME, organism-based; details: in vivo, read-out: Bioavailabiility
Cricetinae gen. sp. [7] = assay: Inhibition of Human Leukocyte Elastase (HLE) induced lung hemorrhage in hamster at an oral dose of 20 mg/kg; […]; assay type: functional, organism-based; design: dose 20 mg/kg; details: Cricetulus griseus
[8] = Partition coefficient (logP); assay type: physicochemical; details: octanol/water

SMILES: CC(C)C(NC(=O)Cn1c(-c2ccc(F)cc2)ncc(NC(=O)OCc2ccccc2)c1=O)C(=O)C(F)(F)F (stereo not given)
- inhibition in vivo at 20 mg/kg (Cricetinae gen. sp. [1]): 63%

- bioavailability [2]: 88%
- bioavailability [4]: 77%
- bioavailability [6]: 62%
SMILES: CC(C)C(NC(=O)Cn1c(-c2ccc(F)cc2)ncc(N)c1=O)C(=O)C(F)(F)F (stereo not given)
- ED50 (Cricetinae gen. sp. [3]): 7.5 mg/kg
- inhibition in vivo at 2.5 mg/kg (Cricetinae gen. sp. [5]): 43%

SMILES: CC(C)C(NC(=O)Cn1c(-c2ccccc2)ccc(NC(=O)OCc2ccc(C(=O)O)cc2)c1=O)C(=O)C(F)(F)F (stereo not given)
- inhibition (Cricetinae gen. sp. [7]): inactive

SMILES: COC(=O)Nc1cnc(-c2ccc(F)cc2)n(CC(=O)NC(C(=O)C(F)(F)F)C(C)C)c1=O (stereo not given)
- inhibition in vivo at 2.5 mg/kg (Cricetinae gen. sp. [5]): 39%

- logP [8]: > 4
SMILES: CC(C)C(NC(=O)Cn1c(-c2ccccc2)ccc(NC(=O)OCc2ccccc2)c1=O)C(=O)C(F)(F)F (stereo not given)
- inhibition (Cricetinae gen. sp. [7]): inactive

Reference: ChEMBL document CHEMBL1127644, “Design of orally active, non-peptidic inhibitors of human leukocyte elastase” (J Med Chem, 1994)
